Consider 87 compounds from a melting point compilation (Tetko et al.; mined from patent text by program, amines drawn as free bases though some values may be those of a salt).

For `CN(C)C(=O)OCCOc1ccc(CC(NC(=O)OC(C)(C)C)C(O)CNCC(O)C(Cc2ccccc2)NC(=O)O)cc1` (configuration not stated), the melting point lay within 128 to 132 °C.
With `CC=CCNc1ccc(Oc2nc(OC)cc(OC)n2)c(C(=O)OC)n1` the figure was 82 to 85 °C; with `c1ccc2c(c1)[C@H](N1CCCCC1)C[C@@H]2N1CCCCC1`, 114 to 115 °C; with `CN(C)CCc1c[nH]c2ccc(C(N)=S)cc12`, 155 °C.
`CCC(=O)Oc1cc(OC)cc(OC)c1C(=O)C=Cc1ccc2c(c1)OCO2` displayed a melting point of 134 °C.
The compound `COC(=O)C1=C(C)Nc2ccccc2SC1c1ccc(C)cc1` (configuration not stated) gave a melting point of 148 to 150 °C.
With `C[Si](C)(C)N1C(=O)c2ccccc2S1(=O)=O` the figure was 90 to 92 °C; with `CCCc1cc(N2CCC(NCC(O)c3cnc4ccccc4c3)CC2)nc2sc(C(N)=O)c(N)c12` (configuration not stated), 213 to 216 °C; with `Cc1c(O)ccc(-c2ccc(C#N)cc2)c1C`, 174 to 176 °C.
`Cc1cc(C(C)(C)C)c(OC(=O)c2cc(C(C)(C)C)c(O)c(C(C)(C)C)c2)c(C)c1COC(=S)c1cc(C(C)(C)C)c(O)c(C(C)(C)C)c1`: the melting point lay in the range of 225 to 228 °C.
The compound `O=C1C=c2cc3c(cc2CC1=O)=CCO3` registered a melting point of 158 to 160 °C.
As to `Cc1ccc2nc(C3(c4ccc(S(N)(=O)=O)cc4)C=C(C(F)(F)C(F)(F)F)NN3)sc2c1` (configuration not stated), the melting point was 234 to 235 °C.
Turning to `Cc1nc(N2CCCC(NCc3ccc(C(F)(F)F)cc3)C2=O)sc1C(=O)NCc1ccccc1` (configuration not stated), the melting point lay in the range of 39 to 40 °C.
The value for `Cc1c2c(nc3ccccc13)CCN(C(=N)N)CC2` was 140 °C; that for `CC(=O)N1CCS(=O)c2ccccc2C1` (configuration not stated) was 156 to 157 °C.
For `CC(C)[C@H](NC(=O)[C@H](CC(=O)OC(C)(C)C)NC(=O)CNC(=O)c1csc(NC(=O)NCc2ccccc2)n1)C(=O)OC(C)(C)C`, the melting point fell in the range of 108 to 110 °C.
`CC(C)NCC(O)COC1c2ccccc2C(=O)N1c1ccc(Cl)cc1` (configuration not stated) gave a melting point of 90 to 92 °C.
As to `NC(=O)N(O)CCNC(=O)c1ccc(Oc2ccc(Cl)cc2)o1`, the melting point was 173 to 175 °C.
`CC(=O)c1ccc(C(C)Oc2cccc(C(=O)Nc3ccc(C#N)cc3)c2)cc1` (configuration not stated): the melting point lay in the range of 79 to 81 °C.
`Cc1cn(C2CC(O[Si](c3ccccc3)(c3ccccc3)C(C)(C)C)C(CI)O2)c(=O)[nH]c1=O` (configuration not stated): the melting point was 142 °C.
In turn, `O=C(O)c1c2c(nc3ccc(F)cc13)-c1ccc(-c3ccccc3)cc1CC2` showed a melting point of 309 to 310 °C.
Compound `CN(C(=O)Nc1ccc(Cl)cc1)n1cnc2ccccc2c1=O` returned a melting point of 186 to 188 °C.
Consider `C=CC(=O)NCCOc1ccc2c(c1)nc(N)c1nc(CCC)sc12`, for which the melting point was 200 to 202 °C.
Regarding `CCn1c2ccccc2c2cc(/C=C/C(=O)CC(=O)/C=C/c3ccc4c(c3)c3ccccc3n4CC)ccc21`, the melting point lay within 264 to 267 °C.
The compound `CCCCCCn1c(C)cc(C)c(C#N)c1=O` gave a melting point of 63 to 69 °C.
In turn, `CC(C)(C)c1ccc(CCC(O)CCC2CCCCCC2)cc1NC(=O)CC1c2ccccc2Oc2ccccc21` (configuration not stated) returned a melting point of 146 to 147 °C.
`NC(=O)N(O)Cc1cc(Br)cs1` yielded a melting point of 162 to 164 °C.
In turn, `COc1c(CC(=O)O)cccc1Oc1ccccc1C` gave a melting point of 90 to 92 °C.
For `CCOC(=O)/C(=N\OC1CCCC1)c1csc(N)n1`, the melting point was 136 to 138 °C.
The value for `COC(=O)COc1ccc(C(=O)c2cccs2)c2c1CCCC2` was 85 °C; that for `CN(C)c1cc(CO)ncc1F` was 80 to 82 °C; that for `c1ccc2sc(SSN(C3CCCCC3)C3CCCCC3)nc2c1` was 84 to 86 °C.
Turning to `CCCCOc1ccc(Cl)cc1C(=O)NCCc1ccc(CC(=O)OCC)cc1`, the melting point was determined as 80 °C.
Compound `O=S(Cc1ccccn1)c1cnc2ccccc2n1` (configuration not stated) displayed a melting point of 117 to 122 °C.
In the case of `O=C(O)c1cnn2c(C(F)F)cc(-c3ccc(C(F)(F)F)c(F)c3)nc12`, the melting point came out at 233 °C.
`CC(C)N1CCC(CNc2ccccc2C(=O)Nc2ccc(Cl)cn2)CC1` registered a melting point of 277 to 280 °C.
The compound `Cn1ncc(C(=O)N2CCC2)c1C(=O)Nc1cc2nc(-c3ccccc3)nn2cc1F` gave a melting point of more than 250 °C.
As to `CCOC(=O)c1c(C(F)(F)F)nc(C(F)(F)F)c(C)c1OC(C)C`, the melting point is 53 to 55 °C.
The compound `CC(=O)OC1C(CO)OC(n2cnc3c(N)ncnc32)C1OC(C)=O` (configuration not stated) registered a melting point of 138 to 139 °C.
The value for `Cc1ccc2oc(S(=O)(=O)c3ccc(=O)[nH]n3)c(C)c2c1` was 246 to 247 °C; that for `COc1nc(-c2ccc(F)cc2)nc(-c2ccccn2)n1` was more than 270 °C.
On to `C=CCOc1ccc2cc(Br)ccc2c1`, for which the melting point fell in the range of 35 to 37 °C.
As to `Cc1ccc(CC2CCN(CCS(=O)c3ccc4[nH]c(=O)oc4c3)CC2)cc1` (configuration not stated), the melting point is 177 to 179 °C.
The value for `CCOc1ccc(CC(CO)NC(=O)c2ccnc(Br)c2)cc1OCC` (configuration not stated) was 97 to 99 °C; that for `CCCc1c(OCCCCCCC(=O)NCCCCc2cccnc2)ccc(C(C)=O)c1O` was 57 to 59 °C; that for `OCc1cccc(-n2cccc2)c1Br` was 78 to 80 °C.
With `Cc1nc(C(F)(F)F)ccc1/C=C/C(=O)Nc1ccc2cc[nH]c2c1` the figure was 223 °C; with `COc1ccc(C#Cc2cc3ncc(C#N)c(Nc4cc(OC)c(Cl)cc4Cl)c3s2)cc1`, 249 to 250 °C; with `CC(C(=O)c1ccc2c(c1)CC(=O)N2)N1CCC(O)(Cc2ccccc2)CC1` (configuration not stated), 188 to 192 °C.
With `CS(=O)(=O)c1ccc(N2CCc3ccccc32)c([N+](=O)[O-])c1` the figure was 152 to 154 °C; with `COc1cc(O)c2c(=O)c(OC)c(-c3ccc(O)c(OC)c3)oc2c1`, 171 to 173 °C.
As for `CCn1cc(-c2cnccn2)ccc1=O`, the melting point lay within 120 to 121 °C.
Compound `CCN1CCN(CCCOc2cc3ncc(C#N)c(Nc4ccc(Sc5nccn5C)c(Cl)c4)c3cc2OCCOC)CC1` showed a melting point of 188 to 190 °C.
`O=C1CCC(N2Cc3c(OCc4ccc(CN5CCN(C(=O)C6CCCCC6)CC5)cc4)cccc3C2=O)C(=O)N1` (configuration not stated) came in with a melting point of 215 to 217 °C.
Compound `COc1cc2ncc(OC3CCCCC3)nc2cc1OC1CCCCC1` registered a melting point of 75 to 78 °C.
As for `COc1ccc2c(c1)C(=O)CCC21CCC(=O)N(C)C1=O` (configuration not stated), the melting point lay within 116 to 118 °C.
For the compound `CCS(=O)CCON=Cc1nn(-c2c(Cl)cc(C(F)(F)F)cc2Cl)c(N)c1S(C)=O` (configuration not stated), the melting point lay in the range of 144 to 148 °C.
Consider `COc1ccnc(CSc2nc3cc4c(cc3[nH]2)OC(F)(F)O4)c1`, for which the melting point lay within 151 to 152 °C.
As to `CS(=O)(=O)OCCn1nccc1NC=O`, the melting point fell in the range of 101 to 104 °C.
As to `S=C(NCCc1ccc(Cl)cc1)Nc1nc2ccccc2[nH]1`, the melting point was 173 to 182 °C.
`CCn1c(=O)c2[nH]c(/C=C/c3ccc(F)c(F)c3)nc2n(CC)c1=O` showed a melting point of more than 300 °C.
On to `O=C(Cc1ccccc1Nc1c(Cl)cccc1Cl)OCCc1ccccn1`, for which the melting point lay in the range of 67 to 68 °C.
With `CCOc1ccc(C2=NN(c3ccc(S(=O)(=O)O)cc3)C(=O)[C@H]3CC=CC[C@@H]23)cc1OCC` (relative stereo), the melting point lay in the range of 65 to 69 °C.
In the case of `Cc1c(CC(=O)O)c2cc(OCc3csc(-c4ccccc4)n3)ccc2n1Cc1ccc(Cl)cc1`, the melting point was 150 to 151 °C.
The value for `CC(C)C[C@@H]1NC(=O)O[C@H]1CCOS(C)(=O)=O` was 99 to 100 °C; that for `CC(C)(C)OC(=O)c1ncn2c1C1C=CCN1C(=O)c1c(Cl)cccc1-2` (configuration not stated) was 227 to 229 °C.
Compound `c1cc(OCCCCc2nnn[nH]2)cc(OCc2ccc3ccccc3n2)c1` gave a melting point of 120 to 130 °C.
`Cc1ccc(C)c(N2C(=O)CON(C)C2=S)c1` displayed a melting point of 104 to 106 °C.
In turn, `SC12CC3CC(CC(C3)C1)C2` yielded a melting point of 101 to 103 °C.
In turn, `CCOC(=O)[C@H](Cc1ccc(-c2c(C)n(C)c(=O)n(C)c2=O)cc1)NC(=O)c1c(Cl)cccc1Cl` displayed a melting point of 262 to 265 °C.
`O=C(O)[C@H](Cc1ccc(C(F)(F)F)cc1)[C@@H](O)c1ccc(F)c(F)c1` (racemic) had a melting point of 76 to 77 °C.
The value for `NS(=O)(=O)c1ccc(-c2cnn(Cc3ccc(F)c(F)c3)c(=O)c2-c2ccc(F)cc2)cc1` was 253 to 255 °C.
`COc1ccc(COC2CCCn3c2c(-c2ccccc2)c2cc(C)c(C)cc2c3=O)cc1` (configuration not stated) came in with a melting point of 145 to 146 °C.
With `Cc1[nH]c(=O)c2c(ccc3nc(Nc4c(Cl)cccc4Cl)[nH]c32)c1C` the figure was more than 300 °C; with `Cc1ccc(Cn2c(-c3ccccc3)nc(Cl)c2CO)cc1`, 173 to 175 °C; with `O=C1NCCN1c1nc(-c2ccc(Br)cc2)cs1`, 230 to 233 °C.
`COC(=O)c1cc(C#N)cc2c1OC(c1ccccc1)(c1ccccc1)O2`: the melting point is 141 °C.
With `CN1CCN(c2ccccc2C=C2CCN(c3ccc(Cl)c(Cl)c3)C2=O)CC1`, the melting point is 177 to 179 °C.
Compound `CCCCC(OC(C)=O)c1ccccc1COc1cccc2cccnc12` (configuration not stated) yielded a melting point of 80 to 82 °C.
On to `O=[N+]([O-])c1ccc(SCCc2c[nH]cn2)cc1`, for which the melting point was 167 to 168 °C.
In the case of `CSc1ccccc1NC(=O)Nc1ccc(N2CCN(C(=O)Nc3ccc(OCCO)cc3C(F)(F)F)CC2)cc1`, the melting point is 115 to 116 °C.
Compound `CC(C)CCCC(C)C1CCC2C3CCC4CC(NC(=O)C(COCc5ccccc5)NC(=O)OC(C)(C)C)CCC4(C)C3CCC12C` (configuration not stated) yielded a melting point of 55 to 67 °C.
In the case of `Cn1nc(C(=O)O)cc1-c1ccccc1`, the melting point lay within 149 to 150 °C.
`CNCc1cccc(-c2ccc(CC3SC(=O)NC3=O)c(C)c2)c1` (configuration not stated): the melting point was 135 °C.
On to `CC1CCC(=NC(=O)Nc2cccc(Cl)c2)N1C` (configuration not stated), for which the melting point lay in the range of 129 to 130 °C.
Compound `Nc1nc(N)c(NC=O)c(Cl)n1` came in with a melting point of more than 300 °C.
Compound `O=C(c1ccccc1)c1ccc(NC(=O)C(O)(C(F)(F)F)C(F)(F)F)cc1` registered a melting point of 143 to 146 °C.
